# Target: GCP-KRASG12D (Homo sapiens, UniProt P01116, G12D)
# Assay: HSQC NMR KD of fragment hits
# Type: binding
# Settings: fragment screen hits, active form of KRAS
# Description: Next, we attempted to identify compounds that bind to GTP-KRAS via fragment-based screening ([21]–[23]). A library of 1,800 fragments was screened using both saturation transfer difference NMR ([24], [25]) and microscale thermophoresis ([26]) using KRAS^G12V-phosphomethylphosphonic acid guanylate ester (GCP-KRAS^G12V), from which 16 fragments were found and subsequently validated (hit rate 0.9%) by the observation of cross-peak shifts in the 2D ^1H/^15N heteronuclear single-quantum correlation (HSQC) NMR spectra of GCP-KRAS^G12D. We also screened a library of 13,800 compounds using uniformly ^15N-labeled GNP-KRAS by HSQC NMR experiments. Representatives of some of the fragments which bound the active form of KRAS from the 2 screens are depicted in Fig. 1A. […]
# 98 Measurement of dissociation constants KD for the compounds synthesized. NMR
# 99 was initially the only method that could provide K Ds for the weakly binding molecules to
# 100 support compound optimization. 1H/15N SoFast HMQC experiments(3) were recorded in
# 101 3mm NMR tubes (170µL filling) at a protein concentration of 70-100µM. Spectra were
# 102 recorded on a Avance III 700MHz spectrometer equipped with a cryogenically cooled
# 103 5mm TCI probe and 48 scans, 128 f1 increments and 2k data points in f2. Total
# 104 acquisition time was 22 minutes. 4 – 6 titration points were performed w ith individual
# 105 samples for each titration point made from 50mM DMSO -d6 stock solutions. Total
# 106 DMSO-d6 concentration was kept constant by backfilling every sample to a total of 4%
# 107 DMSO. KDs were calculated from the differences in chemical shift induced by t he small
# 108 molecules upon interacting with the protein. Average chemical shifts from the 1H and 15N
# 109 dimension were calculated according to the following equation:
# 110 ∆δobs = √[δH2 + (α ∙δN)2] with α set to 0.14
# 111 The Δδobs values at the respective ligand concentrations and the total concentration
# 112 of protein allow a fit to the KD value of the ligand as long as it is binding under fast
# 113 exchange conditions as was the case for most of the compounds tested.(4) Usually Δδobs
# 115 following equation was used to determine the individual KDs: […]
# 121 HEPES, 150 mM NaCl, 3% DMSO, pH 7.5. All measurements were carried out at 25°C.
# 122 Titrations were performed in inverse mode. The cell was loaded with compound solutions
# 123 in the range of 10 to 100 µM. All injections were performed using an initial injection of
# 124 0.5 μL followed by 19 injections of 2 μL of protein in the range of 130-500 µM. The data
# 125 were analyzed with the MicroCal PEAQ-ITC analysis software package. The first data
# GCP-KRASG12D, sequence (P01116 1-169 isoform P01116-2 G12D): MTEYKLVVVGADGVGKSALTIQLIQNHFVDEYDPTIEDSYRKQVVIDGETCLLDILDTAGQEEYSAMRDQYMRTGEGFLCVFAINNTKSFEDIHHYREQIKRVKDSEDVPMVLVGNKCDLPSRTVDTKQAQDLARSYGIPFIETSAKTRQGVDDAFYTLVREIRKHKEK
row,Kd,Compound
1,> 2000 µM,Nc1nc2ccccc2n1Cc1ccccc1 [Compound 4]
2,> 5000 µM,c1ccc2c(CN3CCOCC3)c[nH]c2c1 [Compound 6]

# Second part, the compound before the results:
row,Compound,Kd
1,Clc1ccc2[nH]c3c(c2c1)CNCC3 [Compound 2],> 2000 µM
2,O=C(c1c[nH]c2ccccc12)N1CCNCC1 [Compound 3],> 2000 µM
3,Nc1ccc2nc(Cc3c[nH]c4ccccc34)[nH]c2c1 [Compound 7],1300 µM

# Reference: article PMC6689897, “Drugging an undruggable pocket on KRAS” (Proceedings of the National Academy of Sciences of the …, 2019)
